Assay results reported in paper PMC10952572, “Improved PIEZO1 agonism through 4‐benzoic acid modification of Yoda1” (British Journal of Pharmacology, 2023).

Columns and labels:
Microsomal half-life = type: in vitro ADME; settings: mouse liver microsomes; for half-life at 1 μM: 1 μM compound
Procedure: Compound half‐lives were measured by Malvern Panalytical (UK). Briefly, microsomal mouse liver microsomes (1 mg protein·ml^−1) were pre‐incubated with NADPH cofactor solution at 37°C. Biotransformation was initiated by addition and mixing of 1 μM test compound in a final volume of 350 μl; 25 μl aliquots were removed at 5 min intervals for 35 min and quenched in 300 μl ice‐cold methanol containing internal standard. The protein in the samples was then precipitated by centrifugation at 4°C, and the supernatant was analysed by LC–MS/MS to quantify the test parent compound remaining at each time point.

[1] = target: T1, PIEZO1 channels endogenously expressed in HUVECs (Homo sapiens, UniProt Q92508); experiment: Intracellular Ca2+ measurement in HUVECs; type: cell-based; settings: peak ΔCa2+i, Hill fit, read-out: EC50 (estimated concentration for 50% effect)
T1 construct: HUVECs, which are a physiologically relevant cell type that endogenously expresses PIEZO1 channels; host or cells: HUVEC
T1 sequence (Q92508 whole entry): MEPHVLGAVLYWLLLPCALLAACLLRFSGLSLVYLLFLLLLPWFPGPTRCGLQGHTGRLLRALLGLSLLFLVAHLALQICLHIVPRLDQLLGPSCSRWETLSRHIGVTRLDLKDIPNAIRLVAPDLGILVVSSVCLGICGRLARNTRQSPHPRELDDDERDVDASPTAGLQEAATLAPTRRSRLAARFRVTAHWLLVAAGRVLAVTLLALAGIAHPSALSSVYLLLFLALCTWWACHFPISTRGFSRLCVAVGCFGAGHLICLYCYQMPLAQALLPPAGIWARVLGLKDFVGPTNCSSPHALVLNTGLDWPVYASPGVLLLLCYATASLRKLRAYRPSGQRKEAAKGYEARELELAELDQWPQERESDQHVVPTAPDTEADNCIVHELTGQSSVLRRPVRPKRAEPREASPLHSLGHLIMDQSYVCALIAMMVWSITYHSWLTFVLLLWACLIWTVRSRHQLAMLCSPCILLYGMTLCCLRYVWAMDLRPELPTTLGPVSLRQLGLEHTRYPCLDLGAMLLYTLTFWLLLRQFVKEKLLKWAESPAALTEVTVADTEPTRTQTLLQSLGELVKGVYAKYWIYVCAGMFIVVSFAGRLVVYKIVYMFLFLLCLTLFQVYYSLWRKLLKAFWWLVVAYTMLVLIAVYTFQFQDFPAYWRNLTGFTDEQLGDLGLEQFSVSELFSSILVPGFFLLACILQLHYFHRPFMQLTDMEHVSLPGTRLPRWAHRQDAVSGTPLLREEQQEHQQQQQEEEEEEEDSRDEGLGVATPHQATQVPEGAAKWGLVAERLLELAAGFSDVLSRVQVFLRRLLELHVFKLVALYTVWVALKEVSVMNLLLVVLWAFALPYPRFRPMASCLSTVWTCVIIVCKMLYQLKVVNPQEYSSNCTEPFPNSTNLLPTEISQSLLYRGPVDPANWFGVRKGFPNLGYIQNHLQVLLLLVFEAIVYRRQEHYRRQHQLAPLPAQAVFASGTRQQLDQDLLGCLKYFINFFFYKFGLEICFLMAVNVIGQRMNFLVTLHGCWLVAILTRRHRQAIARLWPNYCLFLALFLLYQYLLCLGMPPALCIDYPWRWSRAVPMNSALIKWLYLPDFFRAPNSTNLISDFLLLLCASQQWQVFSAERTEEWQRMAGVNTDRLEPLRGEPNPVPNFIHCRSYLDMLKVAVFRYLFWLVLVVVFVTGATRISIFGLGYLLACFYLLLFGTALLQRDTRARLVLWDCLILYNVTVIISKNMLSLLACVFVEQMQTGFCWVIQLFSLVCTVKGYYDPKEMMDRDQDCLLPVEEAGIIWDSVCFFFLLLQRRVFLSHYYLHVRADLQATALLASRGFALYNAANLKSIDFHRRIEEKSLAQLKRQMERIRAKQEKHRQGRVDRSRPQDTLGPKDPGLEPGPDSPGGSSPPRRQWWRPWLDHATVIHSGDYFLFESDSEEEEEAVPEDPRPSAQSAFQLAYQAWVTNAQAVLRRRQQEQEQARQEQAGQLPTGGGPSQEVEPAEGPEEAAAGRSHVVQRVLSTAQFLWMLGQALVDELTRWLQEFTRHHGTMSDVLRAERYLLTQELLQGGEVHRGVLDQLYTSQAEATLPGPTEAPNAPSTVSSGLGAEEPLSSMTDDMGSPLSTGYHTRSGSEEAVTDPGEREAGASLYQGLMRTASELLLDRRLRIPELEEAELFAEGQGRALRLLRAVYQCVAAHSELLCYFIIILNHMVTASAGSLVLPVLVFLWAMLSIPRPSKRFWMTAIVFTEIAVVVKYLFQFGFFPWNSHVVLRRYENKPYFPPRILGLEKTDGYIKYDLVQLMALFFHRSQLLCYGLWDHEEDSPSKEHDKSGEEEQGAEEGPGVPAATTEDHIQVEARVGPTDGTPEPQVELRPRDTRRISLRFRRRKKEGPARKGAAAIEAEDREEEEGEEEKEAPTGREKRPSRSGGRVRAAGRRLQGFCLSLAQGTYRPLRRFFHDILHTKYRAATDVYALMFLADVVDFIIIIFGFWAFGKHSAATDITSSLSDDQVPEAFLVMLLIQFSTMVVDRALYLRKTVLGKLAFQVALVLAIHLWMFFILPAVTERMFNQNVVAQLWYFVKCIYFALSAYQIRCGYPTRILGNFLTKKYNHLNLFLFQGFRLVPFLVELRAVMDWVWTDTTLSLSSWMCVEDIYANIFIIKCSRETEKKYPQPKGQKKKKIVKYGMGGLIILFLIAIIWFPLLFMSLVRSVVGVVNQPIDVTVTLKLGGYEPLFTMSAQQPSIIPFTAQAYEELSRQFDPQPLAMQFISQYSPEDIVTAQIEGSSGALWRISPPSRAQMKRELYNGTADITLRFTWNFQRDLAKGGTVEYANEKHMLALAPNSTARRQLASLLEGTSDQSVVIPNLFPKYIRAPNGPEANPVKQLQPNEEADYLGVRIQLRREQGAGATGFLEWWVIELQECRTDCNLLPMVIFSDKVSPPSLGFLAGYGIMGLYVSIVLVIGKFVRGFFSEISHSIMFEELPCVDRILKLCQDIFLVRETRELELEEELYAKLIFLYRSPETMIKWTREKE
Procedure: Human umbilical vein endothelial cells (HUVECs) purchased from PromoCell (#C‐12203) were maintained in endothelial cell […] medium 2 (ECGM‐2, PromoCell #C‐22111) supplemented with 500 pg·ml^−1 recombinant human vascular endothelial growth factor 165, 10 ng·ml^−1 recombinant human basic fibroblast growth factor, 200 ng·ml^−1 hydrocortisone, 22.5 μg·ml^−1 heparin and 2% (vol./vol.) fetal calf serum. […] After washing the cell monolayer with D‐PBS (Sigma #D8537), 2 ml pre‐warmed 0.05% trypsin– EDTA (Gibco #25300054) was added to 75 cm^2 flasks until the cells had detached (between 2 and 5 min at 37°C). Complete ECGM‐2 (8 ml) was added to inhibit the trypsin, the cells were counted and their density was adjusted before seeding into fresh vessels for maintenance cultivation or experimental purposes. The medium for maintenance of cultures was completely refreshed every 48 h. HUVECs were used for experiments after a minimum of three and a maximum of five passages. […]
HEK 293‐TREx cells and their stably transfected derivatives or transiently transfected HEK 293 or HeLa cells were seeded at a density of 7.5 × 10^4 cells per well into poly‐D‐lysine‐coated 96‐well plates. […] Measurements were made at room temperature on a 96‐well fluorescence plate reader (FlexStation 3, Molecular Devices, Sunnyvale, CA, USA) controlled by SoftMax Pro software v7.0.3. […]

[2] = Kinetic and thermodynamic solubility assays (Malvern Panalytical); type: physicochemical; settings: phosphate buffer, physiological pH 7.4; compared with Yoda1
Procedure: Kinetic and thermodynamic solubility assays were also performed by Malvern Panalytical (UK). Briefly, 1000 μl of 0.1 M phosphate buffer (pH 7.4) received either 25 μl of a 10 mM DMSO stock of test compound (for kinetic solubility assays) or 1 mg of test compound (for thermodynamic solubility assays). The mixtures were shaken on an orbital mixer to reach equilibrium for 1 or 24 h, respectively. The equilibrated solution was centrifuged, and the supernatant was removed to a fresh vial and then re‐centrifuged. High‐ and low‐dilution samples were prepared from the secondary supernatant and quantified by LC–MS/MS against a standard curve.

O=C(O)c1ccc(-c2nnc(SCc3c(Cl)cccc3Cl)s2)cc1 [KC159]
Microsomal half-life relative to Yoda1 (Microsomal half-life): at least 20 times
half-life at 1 μM (Microsomal half-life): 29.6 min
EC50 [1]: 2.28 µM
Kinetic solubility [2]: better solubility than Yoda1
Thermodynamic solubility [2]: better solubility than Yoda1

O=C([O-])c1ccc(-c2nnc(SCc3c(Cl)cccc3Cl)s2)cc1.[K+] [KC289]
Microsomal half-life relative to Yoda1 (Microsomal half-life): at least 20 times
half-life at 1 μM (Microsomal half-life): 24.6 min
EC50 [1]: 1.14 µM
Kinetic solubility [2]: better solubility than Yoda1
Thermodynamic solubility [2]: better solubility than Yoda1
